Assays:
[1] = system: fibroblast cultures from normal skin; test: In vitro myofibroblast differentiation assay (α-smooth muscle actin staining), normal skin fibroblasts; type: cell-based, human; settings: GF depleted medium + 5 μg/ml, 14 days
Text: (§1) One of the most important cell types in both normal and pathological scar formation is the myofibroblast. These cells, which differentiate from the unwounded tissue cell type (fibroblasts), are responsible for laying down scar tissue. Indeed myofibroblasts remain present in hypertrophic scars up to four years after the original wounding event. An in vitro assay was accordingly developed to identify actives which prevent or reduce myofibroblast formation and thus identify actives which are effective in reducing and/or preventing scar tissue formation.
(§2) Fibroblast cultures were initiated from normal skin, normal scars, hypertrophic scars (HTS) and burns scars.
Each culture was split into seven parts (A to G) and grown in the following different growth media: […]
(§3) The fibroblasts were grown in these media (which was replenished twice weekly) for fourteen days, fixed and stained immunohistochemically using an antibody specific for α-smooth muscle actin (a marker of myofibroblasts). […] The number of these was counted, as was the total number of cells present, and the proportion of myofibroblasts was then calculated. In this manner, the number of myofibroblasts present in each culture was determined as a percentage of the total number of cells in the culture population.

[2] = system: fibroblast cultures from normal scars; test: In vitro myofibroblast differentiation assay (α-smooth muscle actin staining), normal scar fibroblasts; type: cell-based, human
Text: as §1, §2
(§4) Each culture was split into seven parts (A to G) and grown in the following different growth media:
(§5) (A) was grown in normal growth medium (hereinafter referred to as NGM) which consisted of Dulbecco's modified Eagles Medium (DMEM) plus 10% Foetal Calf Serum (FCS);
(§6) (B) was grown in growth factor depleted medium (hereinafter referred to as GF depleted) which is NGM that is depleted of active polypeptide growth factors including TGFP. It is prepared by treating FCS with a reducing agent in order to attack and cleave the disulphide bonds that determine the conformation and thus the biological activity of the polypeptide growth factors;
(§7) (D) (D1-D4) were grown in growth factor depleted medium plus 1 ng/ml-100 ng/ml of insulin-like Growth Factor-I) (IGF-I) (hereinafter referred to as GF depleted+IGF-I); (E) (E1-E3) were grown in growth factor depleted medium plus 50 ng/ml-[…] of insulin-like Growth Factor II (IGF-II) (hereinafter referred to as GF depleted+IGFII); (F) (F1F3) were grown in growth factor depleted medium plus 25 ng/ml to 100 ng/ml of basic fibroblast growth factor (bFGF) (hereinafter referred to as GF depleted and bFGF); […]
as §3
(§8) Fibroblast cultures were initiated from normal scars (NS) and hypertrophic scars (HTS). […] The number of myofibroblasts was calculated as a percentage of the total cell population and the results are shown in FIGS. 1 and 2 of the drawings.
(§9) Fibroblasts cultures were initiated from normal and hypertrophic scars. […] The number of myofibroblasts were counted and calculated as a percentage of the total cells present.

[3] = system: fibroblast cultures from hypertrophic scars (HTS); test: In vitro myofibroblast differentiation assay (α-smooth muscle actin staining), hypertrophic scar fibroblasts; type: cell-based, human
Text: as §1, §2, §4, §5, §6, §7, §3, §8, §9

[4] = system: fibroblast cultures from burns scars; test: In vitro myofibroblast differentiation assay (α-smooth muscle actin staining), burns scar fibroblasts; type: cell-based, human; settings: 14 days
Text: as §1, §2, §4, §5, §6
(D) (D1-D4) were grown in growth factor depleted medium plus 1 ng/ml-100 ng/ml of insulin-like Growth Factor-I) (IGF-I) (hereinafter referred to as GF depleted+IGF-I); (E) (E1-E3) were grown in growth factor depleted medium plus 50 ng/ml-[…] of insulin-like Growth Factor II (IGF-II) (hereinafter referred to as GF depleted+IGFII); (F) (F1F3) were grown in growth factor depleted medium plus 25 ng/ml to 100 ng/ml of basic fibroblast growth factor (bFGF) (hereinafter referred to as GF depleted and bFGF);
(G) (G1-G3) were grown in growth factor depleted medium plus 25 ng/ml to 100 ng/ml of platelet derived growth factor (PDGF) (hereinafter referred to as GF depleted+PDGF).
The fibroblasts were grown in these media (which was replenished twice weekly) for fourteen days, fixed and stained immunohistochemically using an antibody specific for α-smooth muscle actin (a marker of myofibroblasts). The stain caused α-smooth muscle actin to fluoresce green and accordingly cells that had stained green were identified as myofibroblasts. The number of these was counted, as was the total number of cells present, and the proportion of myofibroblasts was then calculated. In this manner, the number of myofibroblasts present in each culture was determined as a percentage of the total number of cells in the culture population.

[5] = system: murine incisional wounds (myofibroblasts); test: Murine incisional wound healing model, α-smooth muscle actin staining score; type: in vivo, male BALB/c mice
Text: After general anesthesia, both posterior flanks on male BALB/c mice were shaved and cleaned with chlorhexidine in spirit. Two 1.5 cm wounds were marked (one in each flank) parallel to the spine with permanent marker. Full thickness incisions were made along these marks down to the level of the chest wall. Both lateral skin flaps were dissected from the underlying chest wall and the wound assessed from hemorrhage. The wound edges were then infiltrated with test substance or vehicle only control, as appropriate, by injection into the wound edges. Insulatard® was diluted in normal saline (0.9%) to give a final test solution of 1 IU/ml. 0.15 ml of this test solution (0.15 IU) was applied to one of the test wounds and saline alone was applied to the contralateral wound on the same animal. Wounds were closed with interrupted 5/0 Prolene® suture. Mice were recovered from the anesthetic individually and housed in groups of 4. […]
The wounds were analysed in the following manner: The comparison of the actual severity of scarring is impossible in this and all other animal models, since in contrast to human wounds, animal wounds are rapidly closed by way of swift epidermal contraction leaving minimal areas of scarring in any case. We therefore attempted to judge the efficacy of insulin in vivo on its ability to affect the number of myofibroblasts present using immunohistochemical staining methods for the myofibroblast marker, α smooth muscle actin. To allow semi-quantitative analysis of the resulting staining, a visual grading system was developed. Scars were assessed and allocated a score depending on the intensity of alpha smooth muscle actin staining within each section. […] Each scar was assessed at a number (minimum of 3) points along its length and the intensity was scored and averaged for each section to allow comparisons between treatments. Two independent assessors assessed the scoring blindly. The number of wounds assessed for each experimental group was 8. […]

[6] = system: dermal fibroblast cell lines; test: Myofibroblast number in dermal fibroblast cell lines in GFD medium with PPAR agonist; type: cell-based, human; settings: 1 IU/ml insulin alone, 14 days
Text: Dermal fibroblast cell lines were derived from 3 patients and seeded individually onto sterile coverslips. […] Medium was refreshed twice weekly and cultures were harvested for immunohistochemical staining for α-smooth muscle actin after 14 days. The number of myofibroblasts was counted and calculated as a percentage of the total cells present, and since the ability of each cell line to differentiate into myofibroblasts varied extensively, the results were normalised as follows. Results are expressed as the mean percentage reduction in myofibroblast number for each treatment as compared to the proportion of myofibroblasts identified in GFD medium alone for that cell line. The error bars represent plus or minus one standard deviation.

[7] = system: murine incisional scars; settings: 1 dose of insulin (Day 0), harvested after 14 days, n=4
Experimental: Scars were wrapped in saline soaked swabs and transported immediately to the laboratory for testing. Each scar was dissected into 2 equal strips (perpendicular to the line of the scar), each of which was measured using a Nikon Shadowmeter. The strip of tissue was mounted on the tensiometer, with the scar mounted at 6 mm from the jaws of the clamps. Traction was applied across the scar at a constant rate of 10 mm/minute, and the force required for disruption of the scar measured. Stress values were calculated by normalising load values to cross-sectional area of each specimen and are given in units of MPa.

Which results are given for “Insulin: polypeptide hormone; in vivo and Example 9 tests used Insulatard diluted in saline”?
Number of myofibroblasts - percentage of total cell population [1]: 5.26 percentage of total cell popul; Number of myofibroblasts - percentage of total cell population ([2]; GF depleted medium + 5 μg/ml, 14 days): 6.14 percentage of total cell popul; Effect on induction of myofibroblast differentiation by active TGFβ1 ([2]; NGM plus 5 μg/ml insulin plus 0.5 ng/ml TGFβ1, 5 days): no effect on the rapid induction of myofibroblast differentiation; Number of myofibroblasts - percentage of total cell population ([3]; HTS fibroblasts, GF depleted medium + 5 μg/ml, 14 days): 3.23 percentage of total cell popul; Effect on induction of myofibroblast differentiation by active TGFβ1 ([3]; hypertrophic scar fibroblasts, NGM plus 5 μg/ml insulin plus 0.5 ng/ml TGFβ1, 5 days): no effect on the rapid induction of myofibroblast differentiation; Number of myofibroblasts - percentage of total cell population ([4]; GF depleted medium + 10 ng/ml): 16.44 percentage of total cell popul; Number of myofibroblasts - percentage of total cell population ([4]; GF depleted medium + 100 ng/ml): 15.91 percentage of total cell popul; Number of myofibroblasts - percentage of total cell population ([4]; GF depleted medium + 5 μg/ml): 8.20 percentage of total cell popul; Mean score of α-smooth muscle actin staining (out of maximum of 3) ([5]; 0.15 IU Insulatard injected into wound edges, day 14, 8 wounds): 0.486; Myofibroblast score ([5]; single dose 0.15 IU on day 0, day 14 after wounding (FIG. 4)): dropping down to normal; Maximum myofibroblast score ([5]; single dose 0.15 IU on day 0, maximum reached over first 7 days (FIG. 4)): 1.92; Mean percentage reduction in myofibroblast number compared to GFD medium alone [6]: 76.6%; Median wound breaking strength [7]: 1.62 MPa

Source: patent US8557770B2, “Method of preventing or reducing scarring of human skin” (Pharmecosse Ltd., priority 2000, dated 2013)
